Values quoted from earlier work as cited in patent US20230168217A1, “Test strip for the detection of neutral analytes in a sample” (priority 2020, published 2023).
“And” between values parts separate entries of the source, which are not always exact repeats. Equal entries are not always repeated. Where two headings read alike, the source gives them in different places.

Legend:
[1] = previously reported
[2] = not given; remark: listed apart in the source

Row | Compound | Protein bound fractions [1] | Serum levels predicting hepatotoxicity (4 hours postingestion) | Serum levels predicting hepatotoxicity (24 h post-ingestion) | concentrations in fatal cases of poisoning [2]
1 | CC(=O)Nc1ccc(O)cc1 [paracetamol] | 20-25% | ≥ 200 µg/ml and ≥ 1.323 mM | ≥ 6.25 µg/mL and ≥ 43.1 µM | –
2 | COc1cccc(C2(O)CCCCC2CN(C)C)c1 (centres unmarked) [tramadol] | – | – | – | ~3.8 µM
3 | CN1CC[C@]23c4c5ccc(O)c4O[C@H]2[C@@H](O)C=C[C@H]3[C@H]1C5 [morphine] | – | – | – | approximately 1.75 µM
